From patent US7462600B2, “Macrolides” (Pfizer Inc, priority 2004, dated 2008)
Values after ≈ are worked out from the molar mass of the structure shown. Like-named read-outs stand apart in the source and are kept apart here.

Key:
Assay type in all cases: cell-based
[1] = system: Streptococcus pyogenes 1079; experiment: MIC, microtiter broth dilution (NCCLS M100-S14), S. pyogenes 1079 (ermB)
Description: (§1) The assay described herein includes a panel of bacterial strains assembled to include a variety of target pathogenic species, including representatives of macrolide resistance mechanisms that have been characterized. In many cases, both the macrolide-susceptible parent strain and the macrolide-resistant strain derived from it are available to provide a more accurate assessment of the compound's ability to circumvent the resistance mechanism. The assay is performed in microtiter trays and interpreted according to Performance Standards for Antimicrobial Susceptibility Testing; 14th Informational Supplement (M100-S14), published by The National Committee for Clinical Laboratory Standards (NCCLS) guidelines; the MIC is used to compare strains. Compounds are initially dissolved in DMSO as 40 mg/ml stock solutions.

[2] = system: Streptococcus pneumoniae 1016; experiment: MIC, microtiter broth dilution (NCCLS M100-S14), S. pneumoniae 1016 (susceptible)
Description: as §1

[3] = system: Streptococcus pneumoniae 1095; conditions: microtiter broth dilution
Description: as §1

[4] = system: Streptococcus pneumoniae 1175; conditions: microtiter broth dilution
Description: as §1

[5] = system: Haemophilus influenzae 1218; experiment: MIC, microtiter broth dilution (NCCLS M100-S14), H. influenzae 1218 (susceptible)
Description: as §1

[6] = S. pneumoniae 1016 (susceptible)
[7] = H. influenzae 1218 (susceptible)

`CCC1OC(=O)C(C)C(=O)C(C)C(OC2OC(C)CC(N(C)C)C2O)C(C)(OC)CC(C)C(=O)C(C)C2N(CC3CN(Cc4cccc(C#N)c4)C3)C(=O)OC12C` (stereo not shown) [4.08] was tested, and the “MIC S. pyogenes 1079” value ([1]; Streptococcus pyogenes 1079) was over 64.00 µg/mL, the “MIC S. pneumo. 1016” value ([2]; Streptococcus pneumoniae 1016) was under 0.06 µg/mL and the “MIC S. pneumo. 1095” value ([3]; Streptococcus pneumoniae 1095) was 32 µg/mL (≈ 40.2 µM). The “MIC S. pneumo. 1175” value ([4]; Streptococcus pneumoniae 1175) was under 0.06 µg/mL and the “MIC H. influenzae 1218” value ([5]; Haemophilus influenzae 1218) was 0.12 µg/mL (≈ 0.151 µM).
`CCC1OC(=O)C(C)C(=O)C(C)C(OC2OC(C)CC(N(C)C)C2O)C(C)(OC)CC(C)C(=O)C(C)C2N(C3CN(S(=O)(=O)c4cccc(Oc5ccc(F)cc5)c4)C3)C(=O)OC12C` (stereo not shown) [Example 3.110, 3-descladinosyl-11,12-dideoxy-6-O-methyl-3-oxo-12,11-(oxycarbonyl-(1-(3-(4-fluorophenoxy)benzene-1-sulfonyl)-azetidin-3-yl)-imino)erythromycin A] was tested, and the “MIC S. pyogenes 1079” value ([1]; Streptococcus pyogenes 1079) was 4 µg/mL (≈ 4.36 µM), the “MIC S. pneumo. 1016” value ([2]; Streptococcus pneumoniae 1016) was under 0.063 µg/mL and the “MIC S. pneumo. 1095” value ([3]; Streptococcus pneumoniae 1095) was under 0.063 µg/mL. The “MIC S. pneumo. 1175” value ([4]; Streptococcus pneumoniae 1175) was under 0.063 µg/mL and the “MIC H. influenzae 1218” value ([5]; Haemophilus influenzae 1218) was 2 µg/mL (≈ 2.18 µM).
`CCC1OC(=O)C(C)C(=O)C(C)C(OC2OC(C)CC(N(C)C)C2O)C(C)(OC)CC(C)C(=O)C(C)C2N(CC3CCCN3C(=O)c3cc4ccccc4cn3)C(=O)OC12C.O=CO` (stereo not shown) [10.09] was tested, and the “MIC S. pyogenes 1079” value ([1]; S. pyogenes 1079 (ermB)) was over 64.00 µg/mL, the “MIC S. pneumo. 1016” value [2, 6] was under 0.06 µg/mL and the “MIC S. pneumo. 1095” value ([3]; S. pneumoniae 1095 (ermB)) was under 0.06 µg/mL. For the same molecule, the “MIC S. pneumo. 1175” value ([4]; S. pneumoniae 1175 (mefA)) was 1 µg/mL and the “MIC H. influenzae 1218” value [5, 7] was 2 µg/mL.
In the case of `CC[C@H]1OC(=O)[C@H](C)[C@@H](OC(=O)N2CCCC2C)[C@H](C)[C@@H](O[C@@H]2O[C@H](C)C[C@H](N(C)C)[C@H]2O)[C@](C)(OC)C[C@@H](C)C(=O)[C@H](C)[C@H]2N(CC3CN(Cc4c[nH]c5ncccc45)C3)C(=O)O[C@]12C` (stereo partly shown) [Example 5.03, 3-descladinosyl-11,12-dideoxy-6-O-methyl-12,11-(oxycarbonyl-(1-((1H-pyrrolo[2,3-b]pyridin-3-yl)-methyl)-(azetidin-3-yl)-methyl)-imino)-3-((2-methylpyrrolidine)-1-carbonyl)-erythromycin A], the “MIC S. pyogenes 1079” value ([1]; Streptococcus pyogenes 1079) is reported as 0.5 µg/mL (≈ 0.54 µM), the “MIC S. pneumo. 1016” value ([2]; Streptococcus pneumoniae 1016) is reported as under 0.06 µg/mL and the “MIC S. pneumo. 1095” value ([3]; Streptococcus pneumoniae 1095) is reported as under 0.06 µg/mL. The “MIC S. pneumo. 1175” value ([4]; Streptococcus pneumoniae 1175) was under 0.06 µg/mL and the “MIC H. influenzae 1218” value ([5]; Haemophilus influenzae 1218) was 2 µg/mL (≈ 2.16 µM).
`CCC1OC(=O)C(C)C(=O)C(C)C(OC2OC(C)CC(N(C)C)C2O)C(C)(OC)CC(C)C(=O)C(C)C2N(C3CN(S(=O)(=O)c4ccc5c(c4)CS(=O)(=O)C5)C3)C(=O)OC12C` (stereo not shown) [Example 3.95] was tested, and the “MIC S. pyogenes 1079” value ([1]; Streptococcus pyogenes 1079) was 0.12 µg/mL (≈ 0.134 µM), the “MIC S. pneumo. 1016” value ([2]; Streptococcus pneumoniae 1016) was under 0.06 µg/mL and the “MIC S. pneumo. 1095” value ([3]; Streptococcus pneumoniae 1095) was under 0.06 µg/mL. For the same molecule, the “MIC S. pneumo. 1175” value ([4]; Streptococcus pneumoniae 1175) was under 0.06 µg/mL and the “MIC H. influenzae 1218” value ([5]; Haemophilus influenzae 1218) was 0.5 µg/mL (≈ 0.557 µM).
With `CCC1OC(=O)C(C)C(=O)C(C)C(OC2OC(C)CC(N(C)C)C2O)C(C)(OC)CC(C)C(=O)C(C)C2N(CC3CCCN3S(=O)(=O)c3cccc4cnccc34)C(=O)OC12C` (stereo not shown) [10.46] the “MIC S. pyogenes 1079” value ([1]; S. pyogenes 1079 (ermB)) was 64 µg/mL (≈ 72.1 µM), the “MIC S. pneumo. 1016” value [2, 6] was under 0.06 µg/mL and the “MIC S. pneumo. 1095” value ([3]; S. pneumoniae 1095 (ermB)) was under 0.06 µg/mL. The “MIC S. pneumo. 1175” value ([4]; S. pneumoniae 1175 (mefA)) was under 0.06 µg/mL and the “MIC H. influenzae 1218” value [5, 7] was 1 µg/mL (≈ 1.13 µM).
For `CCC1OC(=O)C(C)C(=O)C(C)C(OC2OC(C)CC(N(C)C)C2O)C(C)(OC)CC(C)C(=O)C(C)C2N(CC3CCCN3C(=O)c3ccc4cccnc4c3)C(=O)OC12C` (stereo not shown) [12.12], the “MIC S. pyogenes 1079” value ([1]; S. pyogenes 1079 (ermB)) was over 64.00 µg/mL, the “MIC S. pneumo. 1016” value [2, 6] was under 0.06 µg/mL and the “MIC S. pneumo. 1095” value ([3]; S. pneumoniae 1095 (ermB)) was under 0.06 µg/mL. The “MIC S. pneumo. 1175” value ([4]; S. pneumoniae 1175 (mefA)) was 1 µg/mL (≈ 1.18 µM) and the “MIC H. influenzae 1218” value [5, 7] was 2 µg/mL (≈ 2.35 µM).
`CCC1OC(=O)C(C)C(=O)C(C)C(OC2OC(C)CC(N(C)C)C2O)C(C)(OC)CC(C)C(=O)C(C)C2N(CC3CCCN3C(=O)c3cc4ncccn4n3)C(=O)OC12C` (stereo not shown) [10.53] was tested, and the “MIC S. pyogenes 1079” value ([1]; S. pyogenes 1079 (ermB)) was over 64.00 µg/mL, the “MIC S. pneumo. 1016” value [2, 6] was under 0.06 µg/mL and the “MIC S. pneumo. 1095” value ([3]; S. pneumoniae 1095 (ermB)) was under 0.06 µg/mL. For the same molecule, the “MIC S. pneumo. 1175” value ([4]; S. pneumoniae 1175 (mefA)) was 0.12 µg/mL (≈ 0.143 µM) and the “MIC H. influenzae 1218” value [5, 7] was 1 µg/mL (≈ 1.19 µM).
